Test results: ChEMBL document CHEMBL1201862, “PubChem BioAssay data set” (2004)
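Protocol summary: plate cells (96-well), add compound at 5 concentrations, incubate 48 h, interpolate endpoints linearly. GI50: concentration for 50% inhibition of growth.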 The source made the active and inactive calls. Rule as the data show it: active = GI50 up to about 1.1 µM and inactive = higher.

Experiments:
Assay in all cases: NCI-60 cell line screen, 48 h
BT-549 = system: BT-549
COLO 205 = system: COLO 205
DU-145 = system: DU-145
HCT-116 = system: HCT-116
HL-60 = system: HL-60
HOP-92 = system: HOP-92
K562 = system: K562
LOX IMVI = system: LOX IMVI
MOLT-4 = system: MOLT-4
NCI-H226 = system: NCI-H226
NCI-H23 = system: NCI-H23
OVCAR-3 = system: OVCAR-3
OVCAR-8 = system: OVCAR-8
RPMI-8226 = system: RPMI-8226
SK-MEL-5 = system: SK-MEL-5
SNB-19 = system: SNB-19
SNB-75 = system: SNB-75
SW-620 = system: SW-620
UACC-62 = system: UACC-62
MDA-MB-231 = system: MDA-MB-231

Measured: GI50

CCOP(=O)(OCC)C(Cc1ccccc1)N=C(c1ccccc1)c1ccccc1 (configuration not stated)
inactive: BT-549 13.2 µM | COLO 205 14.3 µM | DU-145 20.9 µM | HCT-116 14.6 µM | HL-60 16.3 µM | HOP-92 13.6 µM | K562 7.29 µM | LOX IMVI 11.6 µM | MOLT-4 4.93 µM | NCI-H226 14.2 µM | NCI-H23 12.7 µM | OVCAR-3 14.5 µM | OVCAR-8 16.3 µM | RPMI-8226 25.4 µM | SK-MEL-5 12.9 µM | SNB-19 14.6 µM | SNB-75 11.5 µM | SW-620 12.4 µM | UACC-62 13.3 µM

CCOC(=O)C1(Cc2ccc3c(c2)CCC3)Cc2cc3c(cc2C1=O)CCC3 (configuration not stated)
inactive: BT-549 76.7 µM | COLO 205 41.7 µM | DU-145 75.5 µM | HCT-116 16.7 µM | HL-60 2.84 µM | K562 9.95 µM | LOX IMVI > 71.6 µM | MDA-MB-231 48.4 µM | MOLT-4 11.9 µM | NCI-H226 > 83 µM | NCI-H23 49.4 µM | OVCAR-3 > 100 µM | OVCAR-8 > 91.2 µM | RPMI-8226 19.2 µM | SK-MEL-5 20.1 µM | SNB-19 > 100 µM | SNB-75 53.7 µM | SW-620 > 85.1 µM | UACC-62 > 100 µM

CC[C@]12C=CCN3CC[C@@]4(c5cc(Br)c(OC)cc5N(C)[C@H]4[C@@](O)(C(=O)N[C@@H](Cc4ccc(O)cc4)C(=O)OC)[C@@H]1O)[C@@H]32
inactive: BT-549 20.7 µM | COLO 205 18.6 µM | DU-145 55.1 µM | HCT-116 34.8 µM | HL-60 26.7 µM | K562 43 µM | LOX IMVI 14.8 µM | MDA-MB-231 11 µM | MOLT-4 14.2 µM | NCI-H23 52.4 µM | OVCAR-3 25.6 µM | OVCAR-8 24.9 µM | RPMI-8226 15.6 µM | SK-MEL-5 17.6 µM | SNB-19 > 100 µM | SW-620 32.9 µM | UACC-62 17.6 µM

COc1cc2c(cc1C)NC(=O)/C2=C/c1cccnc1
inactive: BT-549 22.6 µM | COLO 205 15.6 µM | DU-145 12.3 µM | HCT-116 12.5 µM | HL-60 4.04 µM | HOP-92 15.3 µM | K562 5.31 µM | MOLT-4 1.23 µM | NCI-H23 9.86 µM | OVCAR-3 12.3 µM | OVCAR-8 14.6 µM | SK-MEL-5 11 µM | SNB-19 11.7 µM | SNB-75 45 µM | SW-620 20.8 µM

O=C(O)c1nc2ccc(C(F)(F)F)cc2nc1Nc1ccc(Cl)c(Cl)c1
inactive: BT-549 2.62 µM | COLO 205 11.6 µM | DU-145 9.68 µM | HCT-116 5.12 µM | HL-60 5.62 µM | K562 3.66 µM | LOX IMVI 9.82 µM | MDA-MB-231 6.05 µM | MOLT-4 4.37 µM | NCI-H226 10.6 µM | NCI-H23 4.17 µM | OVCAR-3 6.37 µM | OVCAR-8 4.91 µM | SK-MEL-5 10.6 µM | SNB-19 2.16 µM | SNB-75 13.2 µM | SW-620 8.15 µM | UACC-62 2.3 µM

CCOC(=O)C1(C(=O)OCC)OC(C)=NC1(C(=O)OC)C(=O)OC
inactive: BT-549 > 31.6 µM | COLO 205 > 100 µM | DU-145 > 100 µM | HCT-116 > 100 µM | HL-60 1.15 µM | K562 > 100 µM | LOX IMVI > 100 µM | MDA-MB-231 > 100 µM | MOLT-4 > 87.1 µM | NCI-H226 > 62.5 µM | NCI-H23 > 100 µM | OVCAR-3 > 75.3 µM | OVCAR-8 > 100 µM | SK-MEL-5 > 53.7 µM | SNB-19 > 100 µM | SNB-75 > 32.5 µM | SW-620 > 100 µM | UACC-62 > 100 µM

COC(=O)C(CCSc1ccccc1)C(=O)OC
inactive: BT-549 > 100 µM | COLO 205 > 100 µM | HCT-116 > 100 µM | HL-60 79.3 µM | HOP-92 > 100 µM | MDA-MB-231 > 100 µM | MOLT-4 > 100 µM | NCI-H226 > 100 µM | NCI-H23 > 100 µM | OVCAR-3 > 100 µM | OVCAR-8 > 100 µM | RPMI-8226 > 100 µM | SK-MEL-5 > 100 µM | SNB-75 > 100 µM | SW-620 > 100 µM | UACC-62 > 100 µM

Cc1n[nH]c(=O)n1/N=C/c1ccc(Cl)cc1
inactive: BT-549 23.1 µM | COLO 205 43.3 µM | DU-145 47.2 µM | HCT-116 64.4 µM | HOP-92 32.9 µM | K562 > 100 µM | MOLT-4 54.3 µM | NCI-H23 27.9 µM | OVCAR-3 27.9 µM | OVCAR-8 83.6 µM | RPMI-8226 > 100 µM | SNB-19 61.9 µM | SNB-75 41.2 µM | SW-620 68.7 µM | UACC-62 56.9 µM

NNC(=O)C1(NC(=O)c2ccccc2)C(c2ccccc2)C(c2ccccc2)=NN1c1ccccc1 (configuration not stated)
inactive: BT-549 71.8 µM | COLO 205 45.5 µM | DU-145 72.6 µM | HCT-116 37 µM | K562 27.2 µM | LOX IMVI 23.8 µM | MDA-MB-231 66.8 µM | MOLT-4 12.7 µM | NCI-H226 > 100 µM | NCI-H23 54 µM | OVCAR-3 18.1 µM | OVCAR-8 55.5 µM | RPMI-8226 21.1 µM | SK-MEL-5 30 µM | SNB-19 66.2 µM | SNB-75 30.2 µM | SW-620 46.6 µM | UACC-62 23.1 µM

O=Cc1ccc(OCc2cccc(COc3ccc(/C=N\Nc4ccc([N+](=O)[O-])cc4[N+](=O)[O-])cc3)n2)cc1
inactive: BT-549 > 100 µM | COLO 205 > 100 µM | DU-145 > 100 µM | HCT-116 > 100 µM | HL-60 > 100 µM | K562 > 100 µM | LOX IMVI > 100 µM | MDA-MB-231 43.6 µM | MOLT-4 33.9 µM | NCI-H226 > 100 µM | NCI-H23 > 100 µM | OVCAR-3 > 100 µM | OVCAR-8 61 µM | RPMI-8226 > 100 µM | SK-MEL-5 > 100 µM | SNB-19 > 100 µM | SW-620 > 100 µM | UACC-62 > 100 µM

CC12CCCC(C(=O)O)(C1)[C@H](C(C)(C)C(=O)O)CC2 (some centres not stated)
inactive: BT-549 > 100 µM | COLO 205 > 100 µM | DU-145 > 100 µM | HCT-116 > 100 µM | HL-60 > 100 µM | HOP-92 > 100 µM | K562 > 100 µM | LOX IMVI > 100 µM | MOLT-4 > 100 µM | NCI-H226 > 100 µM | NCI-H23 > 100 µM | OVCAR-3 > 100 µM | OVCAR-8 > 100 µM | RPMI-8226 > 100 µM | SK-MEL-5 > 100 µM | SNB-19 > 100 µM | SNB-75 > 100 µM | SW-620 > 100 µM | UACC-62 > 100 µM
